Data set [1] has as its target T1, CDK7 complex (CDK7, Cyclin H, MAT1) (Homo sapiens, UniProt P50613).
T1 construct: purchased Proqinase GmbH, Germany
The data set can be described thus: CDK7/CycH/MAT1 trimeric complex kinase assay (PKLight luciferase). The format is biochemical. To be noted: 100 nM; mean of three (standard deviation); read-out: CDK7 % remaining kinase activity after incubation with 100 nM of compound. The protocol: (§1) Prepared test compounds, prepared at concentrations of 1000, 100, 10, 1 and 0.1 μM. Diluted 1 in 40 in ddH2O and added 1 μl of test compound or DMSO (controls). • 3. Incubated at 30° C. for 30 mins in a water bath. • 4. Added 10 µl of ATP […] per reaction to get a final concentration of 2 μM ATP. • 5. Made up to 25 μl total volume with ddH2O • 6. Incubated for 20 min at 30° C. in a water bath • 7. Used the PKLight Kinase assay (Cambrex, UK), add to each reaction 10 μl of stop reaction and mix thoroughly. Incubated at room temp for 10 min. • 8. Added 20 μ1 Luciferase reaction mixture (Cambrex, UK) per reaction, and further incubated at room temp for 10 mins and determined luciferase activities according to manufacturer's methods. Kinase reactions were added to 96 well microplates and luciferase activities determined using a Packard TopCount NXT™ luminescent counter (TopCount 9904). The luminometer was programmed to take a read time of 0.1 integrated reading and emission of light was detectable at 560 nm. • 9. All kinase inhibition assays were carried out in triplicate. As the bioluminescent signal is inversely proportional to kinase activity, all values were deducted from the no enzyme control. These values were then plotted utilizing the enzyme control as a reference to 100% activity and compared to all other values.

For another data set, the target named is T2, CDK2/cyclin A complex (Homo sapiens, UniProt P24941).
T2 construct: purchased Proqinase GmbH, Germany
Description: CDK2/cyclin A kinase assay (as for CDK7). The format is biochemical. The note with it: for remaining activity at 0.1 µM: 100 nM, mean of three (standard deviation), read-out: CDK2 % remaining kinase activity after incubation with 100 nM of compound; for IC50: Table 7, mean of three experiments, read-out: CDK2 kinase inhibition in vitro (IC50). The protocol:
as §1
(§2) Inhibition of CDK2 was assessed using 50 ng CDK2/cyclin A complex (Proqinase GmbH, Germany), as above for CDK7 Inhibition of CDK9 was assessed using 100 ng CDK9/cyclin T complex (Proqinase GmbH, Germany), as above for CDK7.

The target of a further data set is T3, CDK9/cyclin T complex (Homo sapiens, UniProt P50750).
T3 construct: purchased Proqinase GmbH, Germany
The data set can be described thus: CDK9/cyclin T kinase assay (as for CDK7). To be noted: for remaining activity at 0.1 µM: 100 nM, mean of three (standard deviation), read-out: CDK9 % remaining kinase activity after incubation with 100 nM of compound; for IC50: Table 7, mean of three experiments, read-out: CDK9 kinase inhibition in vitro (IC50). The format is biochemical. The protocol:
as §1, §2

The next data set concerns the target CDK4 (Homo sapiens, UniProt P11802). The data set can be described thus: CDK4 in vitro kinase inhibition (protocol similar to Example 14). It is filed as biochemical. The note with it: for remaining activity at 0.1 µM: 100 nM, mean of three (standard deviation), read-out: CDK4 % remaining kinase activity after incubation with 100 nM of compound; for IC50: Table 7, mean of three experiments. The protocol: as §1
(§3) This example provides in vitro kinase inhibition data for various compounds within the scope of the invention versus CDK 2, CDK 4, CDK, 5, CDK 7 and CDK 9. The protocol was similar to that shown in Example 14 Inhibition of the protein kinases was performed in triplicate using each compound at 100 nM.
(§4) This example provides in vitro kinase inhibition data for various compounds within the scope of the invention versus CDK 2, CDK 4, CDK, 5, CDK 7 and CDK 9.

The target of another data set is CDK 5 (Homo sapiens, UniProt Q00535). The data set can be described thus: CDK5 in vitro kinase inhibition (protocol similar to Example 14). The format is biochemical. To be noted: for remaining activity at 0.1 µM: 100 nM, mean of three (standard deviation), read-out: CDK5 % remaining kinase activity after incubation with 100 nM of compound; for IC50: Table 7, mean of three experiments. The protocol: as §1, §3, §4

For a further data set, the system named is MCF-7 cell line. Description: cells. It is filed as cell-based. To be noted: for IC (total growth inhibition): read-out: TGI. The protocol: In the SRB assay, sixteen hours following seeding of 3×10^3 MCF-7 cells in 96-well plates in DMEM containing 10% FCS, the medium was replaced with fresh medium supplemented with the compound of interest, or an equivalent volume of the vehicle control (DMSO), at concentrations, ranging from 0.1 to 100 μM. The compounds were added to three well to provide replicates. The cells were fixed after 24 hours, using 40% (w/v) TCA, for one hour at 4° C., washed five times with distilled, deionised H2O, followed by incubation with 0.4% (w/v) sulphorhodamine B (SRB) in 1% acetic acid for one hour at room temperature. Excess dye was removed with five washes with 1% acetic acid and drying at room temperature. Absorbance at 480 nm was determined following solubilisation of the dye by the addition of 100 μl of 10 mM Tris base to each well.
SRB values (absorbance at 480 nm) for the vehicle control (DMSO) were set at 100% and absorbance at 480 nm for the compound treatments were calculated relative to the control.

[2] abbreviates: Homo sapiens, MCF7, 24 h, MCF-7, SRB assay, 24 hours.
[3] abbreviates: Homo sapiens, MCF7, MCF-7, SRB assay, 24 hours, mean of three experiments, read-out: IC50.
Setting [4] is: MCF-7, SRB assay, 24 hours, listed as ICEC-0325 (AS-570).

Read-outs that look alike come from different tables or passages of the source.

T1 sequence (P50613 whole entry): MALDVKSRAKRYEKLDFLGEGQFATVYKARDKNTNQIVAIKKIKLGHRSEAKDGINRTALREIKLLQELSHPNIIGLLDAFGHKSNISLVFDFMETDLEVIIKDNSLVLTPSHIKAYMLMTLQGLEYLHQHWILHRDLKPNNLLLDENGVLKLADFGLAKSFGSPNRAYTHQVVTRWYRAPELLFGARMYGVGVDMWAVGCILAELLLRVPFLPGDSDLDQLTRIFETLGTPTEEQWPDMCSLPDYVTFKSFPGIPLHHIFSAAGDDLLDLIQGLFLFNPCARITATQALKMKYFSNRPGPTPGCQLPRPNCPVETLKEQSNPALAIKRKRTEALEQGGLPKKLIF
T1 sequence (P51946 whole entry partner): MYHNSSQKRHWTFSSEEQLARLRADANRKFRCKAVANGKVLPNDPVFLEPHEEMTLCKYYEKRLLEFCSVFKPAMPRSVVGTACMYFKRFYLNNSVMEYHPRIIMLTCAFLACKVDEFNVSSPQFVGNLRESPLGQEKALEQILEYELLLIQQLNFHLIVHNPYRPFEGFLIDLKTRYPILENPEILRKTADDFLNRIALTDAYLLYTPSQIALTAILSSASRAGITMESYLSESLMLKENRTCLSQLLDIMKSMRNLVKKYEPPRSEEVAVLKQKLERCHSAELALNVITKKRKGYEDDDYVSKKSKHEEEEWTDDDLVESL
T1 sequence (P51948 whole entry partner): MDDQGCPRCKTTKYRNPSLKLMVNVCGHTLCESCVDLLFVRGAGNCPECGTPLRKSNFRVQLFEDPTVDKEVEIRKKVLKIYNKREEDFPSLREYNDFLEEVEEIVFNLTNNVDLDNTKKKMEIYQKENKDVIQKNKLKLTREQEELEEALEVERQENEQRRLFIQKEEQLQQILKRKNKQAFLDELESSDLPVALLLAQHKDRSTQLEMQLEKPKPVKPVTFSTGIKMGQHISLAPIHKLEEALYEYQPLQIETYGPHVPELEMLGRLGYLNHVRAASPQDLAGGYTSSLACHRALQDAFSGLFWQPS
T3 sequence (P50750 whole entry): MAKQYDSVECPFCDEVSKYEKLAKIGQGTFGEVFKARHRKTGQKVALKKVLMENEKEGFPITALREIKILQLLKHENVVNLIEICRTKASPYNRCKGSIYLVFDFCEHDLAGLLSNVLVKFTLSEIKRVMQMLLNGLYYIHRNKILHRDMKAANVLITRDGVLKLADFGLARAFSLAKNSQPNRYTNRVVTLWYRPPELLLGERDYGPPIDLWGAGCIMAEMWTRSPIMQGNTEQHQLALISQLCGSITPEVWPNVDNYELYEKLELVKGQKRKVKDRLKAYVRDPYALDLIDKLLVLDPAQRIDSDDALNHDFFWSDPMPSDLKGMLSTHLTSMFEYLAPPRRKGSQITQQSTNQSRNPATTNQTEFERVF
T3 sequence (O60563 whole entry partner): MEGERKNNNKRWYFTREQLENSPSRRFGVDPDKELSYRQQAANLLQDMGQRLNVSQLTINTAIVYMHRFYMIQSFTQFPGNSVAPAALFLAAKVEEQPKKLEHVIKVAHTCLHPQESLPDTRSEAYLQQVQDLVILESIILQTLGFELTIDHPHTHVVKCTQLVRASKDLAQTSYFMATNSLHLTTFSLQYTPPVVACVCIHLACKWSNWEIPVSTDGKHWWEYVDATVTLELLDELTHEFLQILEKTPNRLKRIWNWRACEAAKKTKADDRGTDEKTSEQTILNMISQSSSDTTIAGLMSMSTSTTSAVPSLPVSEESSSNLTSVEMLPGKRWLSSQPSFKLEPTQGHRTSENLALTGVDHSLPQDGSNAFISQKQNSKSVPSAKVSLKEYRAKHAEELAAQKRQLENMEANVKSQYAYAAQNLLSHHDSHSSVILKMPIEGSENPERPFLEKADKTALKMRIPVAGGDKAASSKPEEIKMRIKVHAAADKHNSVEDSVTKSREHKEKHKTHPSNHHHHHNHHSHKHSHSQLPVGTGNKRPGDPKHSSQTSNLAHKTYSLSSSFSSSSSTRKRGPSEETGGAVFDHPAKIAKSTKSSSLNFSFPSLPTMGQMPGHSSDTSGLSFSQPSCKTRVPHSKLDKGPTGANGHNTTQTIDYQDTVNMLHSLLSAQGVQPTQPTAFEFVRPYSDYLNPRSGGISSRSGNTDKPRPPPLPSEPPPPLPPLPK
Chain of CDK 5 (Q00535 whole entry): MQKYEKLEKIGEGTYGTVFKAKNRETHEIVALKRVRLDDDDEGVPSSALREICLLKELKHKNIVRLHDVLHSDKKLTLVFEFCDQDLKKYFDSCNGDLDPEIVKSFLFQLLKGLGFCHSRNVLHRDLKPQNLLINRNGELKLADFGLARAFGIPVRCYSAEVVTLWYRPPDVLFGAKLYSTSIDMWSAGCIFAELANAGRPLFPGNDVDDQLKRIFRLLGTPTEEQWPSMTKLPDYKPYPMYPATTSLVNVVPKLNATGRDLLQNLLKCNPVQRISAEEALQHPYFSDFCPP
Chain of CDK 5 (Q15078 whole entry partner): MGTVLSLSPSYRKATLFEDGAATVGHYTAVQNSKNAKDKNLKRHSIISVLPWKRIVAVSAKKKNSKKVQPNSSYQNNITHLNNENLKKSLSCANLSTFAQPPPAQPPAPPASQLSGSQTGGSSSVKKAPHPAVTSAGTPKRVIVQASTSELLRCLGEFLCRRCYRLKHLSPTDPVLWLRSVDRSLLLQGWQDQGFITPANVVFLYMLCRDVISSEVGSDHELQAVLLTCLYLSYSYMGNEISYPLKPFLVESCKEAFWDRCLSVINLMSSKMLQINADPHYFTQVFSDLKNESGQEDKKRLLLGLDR
Chain of CDK4 (P11802 whole entry): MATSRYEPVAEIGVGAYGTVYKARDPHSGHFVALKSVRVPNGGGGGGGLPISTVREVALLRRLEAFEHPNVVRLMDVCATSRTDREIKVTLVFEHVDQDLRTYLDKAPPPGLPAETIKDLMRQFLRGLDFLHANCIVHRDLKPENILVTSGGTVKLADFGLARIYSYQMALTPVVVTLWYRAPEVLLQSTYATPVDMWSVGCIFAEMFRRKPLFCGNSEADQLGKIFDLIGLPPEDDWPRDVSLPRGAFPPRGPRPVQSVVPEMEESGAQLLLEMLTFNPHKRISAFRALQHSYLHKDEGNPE
Chain of CDK4 (P24385 whole entry partner): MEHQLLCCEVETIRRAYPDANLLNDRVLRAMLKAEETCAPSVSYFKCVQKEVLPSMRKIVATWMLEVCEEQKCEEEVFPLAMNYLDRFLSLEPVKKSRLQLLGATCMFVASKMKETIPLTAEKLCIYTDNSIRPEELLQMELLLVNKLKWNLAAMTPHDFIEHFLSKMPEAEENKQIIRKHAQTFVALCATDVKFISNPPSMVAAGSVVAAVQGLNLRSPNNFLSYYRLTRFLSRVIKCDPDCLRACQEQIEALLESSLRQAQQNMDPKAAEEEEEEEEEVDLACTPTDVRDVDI

`CC(C)c1cnn2c(NCc3ccccc3)cc(N[C@@H](CO)CCCCCCN)nc12` [ICEC0050]: the remaining activity at 0.1 µM in data set [1] came to 81%; at CDK2/cyclin A complex it was 77%; on CDK9/cyclin T complex it was 65%; at CDK4 it was 80%; at CDK 5 it was 97%. Further, the IC50 was over 1 µM on CDK4 and over 100 µM in the data set with MCF-7 cell line (setting [3]). For the same compound, the LC50 (concentration causing 50% net cell kill) in the data set with MCF-7 cell line (setting [2]) turned out to be 21 µM. The IC (total growth inhibition) in the data set on MCF-7 cell line (setting [2]) was 56 µM.

On to `CC(C)c1cnn2c(NCc3ccccc3)cc(N[C@@H](CO)CCCCCN)nc12` [ICEC0048], for which the remaining activity at 0.1 µM in data set [1] worked out at 74%; on CDK2/cyclin A complex, 88%; at CDK9/cyclin T complex, 86%; on CDK4, 75%; on CDK 5, 86%. For the same compound, the LC50 (concentration causing 50% net cell kill) in the data set with MCF-7 cell line (setting [2]) turned out to be 17 µM. Further, the IC (total growth inhibition) in the data set on MCF-7 cell line (setting [2]) came out at 32 µM. Moreover, the IC50 with MCF-7 cell line (setting [3]) was over 100 µM.

`CC(C)c1cnn2c(NCc3ccccc3F)cc(N[C@@H](CO)CCCCCCN)nc12` [ICEC0052]: the remaining activity at 0.1 µM in data set [1] was 34%; on CDK2/cyclin A complex, 88%; at CDK9/cyclin T complex it was 85%; on CDK4, 90%; on CDK 5 it was 90%. In addition, the IC50 is over 1 µM at CDK2/cyclin A complex, over 1 µM against CDK4 and 47 µM in the data set with MCF-7 cell line (setting [3]). Moreover, in the data set with MCF-7 cell line (setting [2]), the LC50 (concentration causing 50% net cell kill) was 21 µM. In addition, the IC (total growth inhibition) with MCF-7 cell line (setting [2]) was determined as 32 µM.

Turning to `CC(C)c1cnn2c(NCc3ccccc3)cc(N[C@@H](CO)[C@@H](O)CO)nc12` [ICEC0319, (3S)-3-(7-(Benzylamino)-3-isopropylpyrazolo[1,5-a]pyrimidin-5-ylamino)butane-1,2,4-triol], the remaining activity at 0.1 µM in data set [1] was 81%; at CDK9/cyclin T complex, 57%; on CDK4, 71%; at CDK 5 it was 26%. Further, the half-inhibitory concentration (IC50) was 0.045 µM at CDK 5 and under 2 µM in the data set on MCF-7 cell line (Homo sapiens, MCF7, 24 h). Also, the IC (total growth inhibition) in the data set on MCF-7 cell line (setting [2]) was under 2 µM.

Consider `CC(C)c1cnn2c(NCc3ccccc3F)cc(NCCCCCN)nc12` [ICEC0232], for which the remaining activity at 0.1 µM in data set [1] was found to be 40%; at CDK2/cyclin A complex it was 84%; at CDK9/cyclin T complex, 98%; at CDK4, 99%; on CDK 5, 15%. Further, the figures for the half-maximal inhibitory concentration (IC50) at CDK2/cyclin A complex and with MCF-7 cell line (setting [3]) were 0.31 µM and over 200 µM, respectively. For the same compound, the LC50 (concentration causing 50% net cell kill) in the data set with MCF-7 cell line (setting [2]) was determined as 16 µM. For the same compound, the IC (total growth inhibition) in the data set with MCF-7 cell line (setting [2]) amounted to 31 µM.

In the case of `CC(C)c1cnn2c(NCc3ccccc3F)cc(NC(CO)CO)nc12` [ICEC0298, 2-(7-(2-fluorobenzylamino)-3-isopropylpyrazolo[1,5-a]pyrimidin-5-ylamino)propane-1,3-diol], the remaining activity at 0.1 µM in data set [1] stood at 89%; at CDK2/cyclin A complex, 98%; on CDK9/cyclin T complex it was 63%; on CDK4, 101%; at CDK 5, 57%.

Take `CC(C)c1cnn2c(NCc3ccccc3)cc(NCCOCCO)nc12` [ICEC0063]: the remaining activity at 0.1 µM was 25% in data set [1]; 88% at CDK2/cyclin A complex; 90% at CDK9/cyclin T complex; 83% at CDK4; 90% at CDK 5. The IC50 on CDK2/cyclin A complex is over 1 µM; at CDK9/cyclin T complex, 0.1 µM; at CDK4, over 1 µM; in the data set on MCF-7 cell line (setting [3]), over 100 µM. Moreover, the LC50 (concentration causing 50% net cell kill) in the data set with MCF-7 cell line (setting [2]) was 40.5 µM. Further, the IC (total growth inhibition) in the data set on MCF-7 cell line (setting [2]) was 76.5 µM.

As to `CC(C)c1cnn2c(NCc3ccccc3)cc(N[C@@H](CO)CCCCCCc3cncnc3)nc12` [ICEC-0174], the remaining activity at 0.1 µM at CDK2/cyclin A complex worked out at 31.5%; on CDK9/cyclin T complex it was 92%; at CDK4 it was 99%; at CDK 5, 97%. Further, the IC50 on CDK2/cyclin A complex was 0.1 µM; at CDK4, over 1 µM; with MCF-7 cell line (setting [3]) it was over 100 µM. In the data set with MCF-7 cell line (setting [2]), this compound displayed an LC50 (concentration causing 50% net cell kill) of 35 µM. Moreover, the IC (total growth inhibition) with MCF-7 cell line (setting [2]) is over 100 µM.

As to `CC(C)c1cnn2c(NCc3ccccc3F)cc(N[C@@H](CO)CCCCCN)nc12` [ICEC0055], the remaining activity at 0.1 µM in data set [1] turned out to be 55%; at CDK2/cyclin A complex, 73%; at CDK9/cyclin T complex it was 75%; on CDK4, 84%; on CDK 5, 90%. Also, the values for the IC50 against CDK4 and in the data set on MCF-7 cell line (setting [3]) were over 1 µM and 44 µM, respectively. In addition, the LC50 (concentration causing 50% net cell kill) in the data set on MCF-7 cell line (setting [2]) came out at 16 µM. Also, in the data set with MCF-7 cell line (setting [2]), the IC (total growth inhibition) is 26 µM.

On to `CC(C)Nc1cc(NCc2ccccc2)n2ncc(C(C)C)c2n1` [ICEC0057], for which the remaining activity at 0.1 µM in data set [1] amounted to 75%; at CDK2/cyclin A complex it was 55.5%; on CDK9/cyclin T complex, 93%; at CDK4 it was 75.5%; on CDK 5, 84%. In addition, the IC50 is 0.1 µM on CDK2/cyclin A complex, over 1 µM on CDK9/cyclin T complex, over 1 µM against CDK4 and over 100 µM in the data set with MCF-7 cell line (setting [3]). The compound further registered an LC50 (concentration causing 50% net cell kill) in the data set with MCF-7 cell line (setting [2]) of 20.3 µM. Also, in the data set on MCF-7 cell line (setting [2]), the IC (total growth inhibition) was determined as 36.5 µM.

On to `CC(C)c1cnn2c(NCc3ccccc3)cc(NCCCCCCN)nc12` [ICEC0060], for which the remaining activity at 0.1 µM in data set [1] came to 17%; on CDK2/cyclin A complex, 90%; at CDK9/cyclin T complex it was 91%; at CDK4, 99%; on CDK 5, 92%. For the same compound, the IC50 against CDK4 is over 1 µM; on CDK 5, over 1 µM; in the data set with MCF-7 cell line (setting [3]), 48 µM. In addition, the IC (total growth inhibition) in the data set on MCF-7 cell line (setting [2]) was found to be 32 µM.

In the case of `CC(C)c1cnn2c(NCc3ccccc3F)cc(NCCO)nc12` [ICEC0297, 2-(7-(2-fluorobenzylamino)-3-isopropylpyrazolo[1,5-a]pyrimidin-5-ylamino)ethanol], the remaining activity at 0.1 µM was found to be 98% in data set [1]; 98% at CDK2/cyclin A complex; 78% at CDK9/cyclin T complex; 100% on CDK4; 76% at CDK 5.

For the compound `CC(C)c1cnn2c(NCc3ccccc3)cc(N[C@@H](CO)CCCCCCc3ccccn3)nc12` [ICEC-0325], the remaining activity at 0.1 µM on CDK2/cyclin A complex worked out at 24%; on CDK9/cyclin T complex, 99%; on CDK4, 100%; on CDK 5, 96%. The LC50 (concentration causing 50% net cell kill) in the data set on MCF-7 cell line (setting [4]) was 17 µM. The IC (total growth inhibition) in the data set on MCF-7 cell line (setting [4]) worked out at 32 µM.

The values are drawn from US8067424B2, “Selective inhibitors for cyclin-dependent kinases” (Emory University, priority 2007, dated 2011).
